Source: patent US9724335B2, “Solid dispersions of insoluble drug and preparation method thereof” (SK BIOPHARMACEUTICALS CO., LTD., priority 2012, dated 2017)
Converted amounts (≈) assume the structure as drawn.

What was measured:
[1] = Pharmacokinetic test of the solid dispersion for a Beagle dog (oral, plasma CBI by LC-MS/MS); format: in vivo; details: oral 40 mg/kg in gelatin capsule, all the time zones (0-24 h), listed as CBI powder
Method: Just before the test, three Beagle dogs were weighed respectively. The solid dispersion of Example 3 as the test group and CBI powder as the control group each weighed in the amount corresponding to 40 mg/kg, were filled into a gelatin capsule and then orally administered. Just before and at 0.5, 1, 2, 4, 6, 8 and 24 h after administration, the blood was collected from the popliteal vein. The plasma was separated from the blood sample by centrifugation and stored/kept at −20° C. until analysis thereof. For the analysis, the plasma sample (0.5 ml) was correctly transferred to a 1.5 ml polypropylene centrifuge tube. This mixture was vortexed for 30 sec and centrifuged at 400 rpm for 10 min. The concentration of CBI in the plasma was analyzed by LC-MS/MS. […] The peak was detected by MRM (multiple reaction monitoring) method using triple-quadrupole mass spectrometry. The ionization was analyzed in the positive mode by using electrospray ionization (ESI) wherein the ion spray temperature was set up at 500° C. In the MRM method, the protonated molecular ions of CBI and the internal standard compound were monitored to have the m/z values of 325.1 and 268.0, and the product ions thus produced were monitored to have the m/z values of 91.0 and 155.0, respectively. The area under the concentration-time curve (AUC) of the drug in the plasma was calculated by the linear trapezoidal method.

[2] = Solubility of CBI in several solvents (24 h stirring at room temperature, HPLC); format: physicochemical; details: for solubility at 24 h: organic solvent or mixture, thermodynamic from solid
Method: Under several solvent conditions—i.e., distilled water, methanol, ethanol, acetone and diethyl ether—the solubility of CBI was measured. Specifically, about 5 to 40 mg of CBI was introduced into a 1.5 mL microtube, and 1 mL of the test solvent was added thereto. The mixture was slowly stirred in a rotary stirrer for 24 h under the condition of room temperature until solvent equilibrium was reached. After stirring, the suspended solution was filtered through a 0.45 micrometer membrane filter. The supernatant was collected and diluted by two-fold with the same amount of diluent for analysis. The CBI concentration was analyzed by using high-performance liquid chromatography. The column used in the present experiment was a […], 5 μm C18 column, and the mobile phase was a mixture of 35% acetonitrile, 20% methanol and 45% distilled water by volume. The flow rate was 1.0 mL/min, and the detection was performed at 255 nm. The results are shown in Table 11 wherein the values are represented as an average of three repeats ±standard deviation.

NC(=O)OCc1cc(-c2ccc(OCc3ccccc3)cc2)no1 [CBI, carbamic acid 3-(4-benzyloxy-phenyl)-isoxazol-5-ylmethyl ester]
Blood CBI Concentration [1]: below the sensitivity for quantification
Solubility ([2]; Distilled Water): Not detected
solubility at 24 h ([2]; Acetone): 24800 µg/mL (≈ 76.5 mM)
solubility at 24 h ([2]; Diethyl Ether): 700 µg/mL (≈ 2.16 mM)
solubility at 24 h ([2]; Ethanol): 1500 µg/mL (≈ 4.62 mM)
solubility at 24 h ([2]; Methanol): 2500 µg/mL (≈ 7.71 mM)
